The record followed here is patent US9938273B2 (Plexxikon Inc., priority 2015, dated 2018).

In test [1] the target is T1, FLT3-D835Y (Homo sapiens, UniProt P36888, D835Y).
T1 construct: purchased Invitrogen PV3967
T1 sequence (P36888 27-993 D835Y): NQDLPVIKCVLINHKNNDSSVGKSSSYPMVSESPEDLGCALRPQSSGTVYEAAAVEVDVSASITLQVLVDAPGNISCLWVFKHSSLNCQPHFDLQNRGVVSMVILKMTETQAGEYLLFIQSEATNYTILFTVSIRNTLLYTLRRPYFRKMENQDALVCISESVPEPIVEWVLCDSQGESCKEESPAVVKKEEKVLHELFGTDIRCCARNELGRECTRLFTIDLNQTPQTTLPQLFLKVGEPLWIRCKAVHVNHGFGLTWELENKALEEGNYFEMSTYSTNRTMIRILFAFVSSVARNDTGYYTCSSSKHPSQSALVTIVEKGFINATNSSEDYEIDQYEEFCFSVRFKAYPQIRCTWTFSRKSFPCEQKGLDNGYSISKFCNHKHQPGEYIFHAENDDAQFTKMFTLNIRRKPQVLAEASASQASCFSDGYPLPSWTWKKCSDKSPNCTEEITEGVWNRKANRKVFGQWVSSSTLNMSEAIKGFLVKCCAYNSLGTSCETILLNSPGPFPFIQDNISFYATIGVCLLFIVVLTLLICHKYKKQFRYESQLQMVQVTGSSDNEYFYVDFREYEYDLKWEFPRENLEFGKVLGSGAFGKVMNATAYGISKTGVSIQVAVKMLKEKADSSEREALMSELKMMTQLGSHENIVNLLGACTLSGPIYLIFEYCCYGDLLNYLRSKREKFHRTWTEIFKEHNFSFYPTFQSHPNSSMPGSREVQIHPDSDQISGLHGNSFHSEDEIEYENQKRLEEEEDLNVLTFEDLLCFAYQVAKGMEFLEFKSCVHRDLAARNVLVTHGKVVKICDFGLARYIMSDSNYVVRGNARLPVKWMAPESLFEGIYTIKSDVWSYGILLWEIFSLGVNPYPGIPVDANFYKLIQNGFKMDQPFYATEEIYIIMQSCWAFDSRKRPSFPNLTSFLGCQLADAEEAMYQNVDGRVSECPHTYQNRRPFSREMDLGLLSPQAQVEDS
The test is described as follows: AlphaScreen kinase assay with recombinant enzyme, FLT3-D835Y. The note with it: 8pt, GMean. The format is biochemical. The protocol:
(§1) In order to determine the effect of compounds on FLT3 catalytic activity, kinase assays using recombinant enzymes and AlphaScreen® technology have been established. The catalytic activity of c-kit activity was also measured to determine selectivity of the compounds. When the kinases are catalytically active, they phosphorylate a biotinylated peptide substrate on tyrosine residues. Using AlphaScreen® technology, the ability of the compounds to affect the catalytic activity of the kinases can be measured quantitatively. The peptide substrate is immobilized by the AlphaScreen® Streptavidin Donor beads and, upon phosphorylation by a tyrosine kinase, can bind to AlphaScreen® Anti-Phosphotyrosine (PY20) Acceptor beads. Upon excitation of these beads with laser light at 680 nm, singlet oxygen is produced. This singlet oxygen is rapidly quenched, unless the AlphaScreen® Anti-Phosphotyrosine (PY20) Acceptor beads are in close proximity, in which case a proximity signal can be measured at 580 nm. In the presence of catalytic activity, there is a very strong proximity signal. Selective kinase inhibitors affect a decrease in this proximity signal through a decrease in tyrosine phosphorylation of the peptide substrate.
(§2) The assay was performed as summarized below.
(§3) Poly (Glu4-Tyr) Peptide, biotin conjugate [Biotin-GG(EEEEY)10EE] (SEQ ID NO: 4)
(§4) Final concentration=30 nM
(§5) Final concentration for IC50 determination=10 μM (FLT3-D835Y or FLT3-ITD) or 100 μM (c-KIT)
(§6) AlphaScreen® Phosphotyrosine (PY20) Assay Kit
(§7) Final concentration=10 μg/mL
(§8) Dilute compounds in DMSO to 20× final concentration.
(§9) Add 1 μl of compound to each well of 384 well reaction plate (Perkin Elmer #6005359).
(§10) Mix enzyme and Poly (Glu4-Tyr) Peptide substrate at 1.33× final concentration in assay buffer.
(§11) Mix ATP at 5× final concentration in assay buffer.
(§12) Add 15 μL enzyme/substrate mixture to the reaction plate.
(§13) Add 4 μL of ATP to the reaction plate.
(§14) Mix Streptavidin Donor beads at 6× final concentration in Stop/Detection buffer.
(§15) Add 5 μL Streptavidin Donor beads to the reaction plate. Centrifuge 1 minute, shake to mix, and incubate at room temperature for 20 minutes.
(§16) Mix Anti-Phosphotyrosine (PY20) Acceptor beads at 6× final concentration in Stop/Detection buffer.
(§17) Add 5 μL Anti-Phosphotyrosine (PY20) beads to the reaction plate.
(§18) Centrifuge 1 minute, shake to mix, and incubate at room temperature for 60 minutes.
(§19) Read plate on Wallac EnVision™ 2103 Multilabel Reader.

Test [2] has as its target T2, FLT3-ITD (Homo sapiens, UniProt P36888).
T2 sequence (P36888 1-993): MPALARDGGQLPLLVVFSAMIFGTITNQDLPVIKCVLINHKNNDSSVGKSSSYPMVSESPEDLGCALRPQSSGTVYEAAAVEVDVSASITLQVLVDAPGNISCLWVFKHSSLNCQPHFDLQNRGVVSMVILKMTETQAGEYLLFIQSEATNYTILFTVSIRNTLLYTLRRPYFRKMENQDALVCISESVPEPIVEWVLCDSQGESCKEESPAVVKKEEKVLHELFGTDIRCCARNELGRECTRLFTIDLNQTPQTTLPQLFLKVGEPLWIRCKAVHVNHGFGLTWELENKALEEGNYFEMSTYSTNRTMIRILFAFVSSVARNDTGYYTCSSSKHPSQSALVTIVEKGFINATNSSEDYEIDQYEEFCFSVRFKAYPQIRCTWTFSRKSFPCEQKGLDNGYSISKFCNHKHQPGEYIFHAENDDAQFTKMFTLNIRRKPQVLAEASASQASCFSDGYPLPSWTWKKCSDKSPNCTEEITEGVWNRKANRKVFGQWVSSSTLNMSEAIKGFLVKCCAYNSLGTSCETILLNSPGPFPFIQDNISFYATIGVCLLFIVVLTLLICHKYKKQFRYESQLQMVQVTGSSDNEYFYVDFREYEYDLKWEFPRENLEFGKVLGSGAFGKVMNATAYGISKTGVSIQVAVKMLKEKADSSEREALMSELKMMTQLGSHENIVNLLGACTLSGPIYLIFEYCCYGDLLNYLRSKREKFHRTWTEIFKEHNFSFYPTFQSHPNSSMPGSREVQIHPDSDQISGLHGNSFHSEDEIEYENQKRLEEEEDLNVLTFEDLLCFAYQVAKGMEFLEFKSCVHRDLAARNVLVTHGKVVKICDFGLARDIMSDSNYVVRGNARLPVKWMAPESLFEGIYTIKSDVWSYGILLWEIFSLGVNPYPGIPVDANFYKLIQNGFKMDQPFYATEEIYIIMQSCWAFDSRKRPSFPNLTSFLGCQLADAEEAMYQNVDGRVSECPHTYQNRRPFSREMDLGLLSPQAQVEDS
Briefly: AlphaScreen kinase assay with recombinant enzyme, FLT3-ITD. The format is biochemical. The note with it: 8pt; read-out: FLT3_ITD 8pt: IC50. The protocol: as §1, §2, §3, §4, §5, §6, §7, §8, §9, §10, §11, §12, §13, §14, §15, §16, §17, §18, §19
In general terms: Alpha assays give light when donor and acceptor beads are brought close together.

In test [3] the target is T3, c-KIT (Homo sapiens, UniProt P10721).
T3 construct: purchased Millipore 14-559K
T3 sequence (P10721 26-976): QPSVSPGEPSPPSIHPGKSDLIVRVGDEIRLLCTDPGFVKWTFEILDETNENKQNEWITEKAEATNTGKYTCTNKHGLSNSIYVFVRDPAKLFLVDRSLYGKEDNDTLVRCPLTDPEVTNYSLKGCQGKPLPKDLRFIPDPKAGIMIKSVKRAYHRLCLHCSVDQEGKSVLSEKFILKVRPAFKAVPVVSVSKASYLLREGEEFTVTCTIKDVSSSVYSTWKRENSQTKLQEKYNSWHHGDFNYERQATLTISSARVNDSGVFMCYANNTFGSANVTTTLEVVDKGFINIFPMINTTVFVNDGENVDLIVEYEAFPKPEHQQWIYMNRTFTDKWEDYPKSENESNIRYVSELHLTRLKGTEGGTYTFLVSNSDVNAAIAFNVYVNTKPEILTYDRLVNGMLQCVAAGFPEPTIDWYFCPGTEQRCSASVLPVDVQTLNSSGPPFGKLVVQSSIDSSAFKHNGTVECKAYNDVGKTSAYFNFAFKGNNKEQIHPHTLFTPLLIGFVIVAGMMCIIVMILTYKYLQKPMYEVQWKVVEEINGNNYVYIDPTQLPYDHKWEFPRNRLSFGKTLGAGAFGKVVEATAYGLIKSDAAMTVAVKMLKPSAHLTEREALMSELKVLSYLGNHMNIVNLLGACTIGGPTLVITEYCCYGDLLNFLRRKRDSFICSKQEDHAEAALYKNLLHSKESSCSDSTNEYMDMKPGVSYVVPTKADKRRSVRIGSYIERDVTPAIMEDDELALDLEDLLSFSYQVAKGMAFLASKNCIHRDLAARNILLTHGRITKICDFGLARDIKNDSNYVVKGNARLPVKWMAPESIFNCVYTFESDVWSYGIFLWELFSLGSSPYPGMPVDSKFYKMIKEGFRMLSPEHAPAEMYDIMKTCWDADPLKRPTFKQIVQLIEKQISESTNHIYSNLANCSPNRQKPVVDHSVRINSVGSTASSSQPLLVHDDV
The test is described as follows: AlphaScreen kinase assay with recombinant enzyme, c-KIT. The format is biochemical. The settings on record: 100ATP, 8pt, GMean. The protocol:
as §1, §2, §3, §4, §5, §6, §7, §8, §9, §10, §11, §12, §13, §14, §15, §16, §17, §18, §19

The test system of test [4] is MOLM-14 D835Y cells, FLT3 ITD and FLT3 D835Y. Briefly: Cell proliferation assay (CellTiter-Glo), MOLM-14 D835Y. The format is cell-based. The settings on record: Homo sapiens, 72 h, 3d-Growth, GMean. The source says:
The FLT3 inhibitors may be assessed using the MOLM-14, Acute Myeloid Leukemia cell line that endogenously expresses FLT3 ITD or derivatives of the human FLT3 AML cell line which acquired the D835Y (activation loop) of F691L (gatekeeper) mutation after selection in escalating doses of the FLT3 Inhibitor AC220. FLT3 inhibitors may also be assessed using cells that are engineered to express mutant FLT3. For engineered cells, murine Ba/F3 cells were transfected with full-length FLT3 ITD/D835Y mutations. The parental BA/F3 cells are dependent upon Interleukin-3 (IL-3) for survival, and introduction of the FLT3 constructs rendered these cells dependent upon FLT3 kinase activity when cultured in the absences of IL-3. Engineered BA/F3 cell growth assays can be performed in either the […] of IL-3, to assess the compound inhibition of FLT3 or to detect the presence of off-target activity, respectively. Inhibitors of FLT3 kinase activity reduce or eliminate the FLT3 oncogenic signaling, resulting in reduced cell proliferation. This inhibition is measured as a function of compound concentration to asses IC50 values.
Cell lines used in proliferation assays are as follows in Table 3:
Cells were seeded at 1×10^4 cells per well of a 96 well cell culture plate in 50 μl of cell culture medium. Compounds were dissolved in DMSO, typically at a concentration of 0.5 mM and were serially diluted 1:3 for a total of eight points and added to the cells to final concentrations of […], 0.0041, 0.0014 and 0.00046 μM in 100 μl cell culture medium (final concentration 0.2% DMSO). […] The cells were incubated at 37° C., 5% CO2 for three days. CellTiter-Glo Buffer (Promega Cell Viability Assay catalog #G7573) and substrate were equilibrated to room temperature, and enzyme/substrate Recombinant Firefly Luciferase/Beetle Luciferin was reconstituted. The cell plates were equilibrated to room temperature for 30 minutes, then lysed by addition of an equivalent volume of the Celltiter-Glo Reagent. The plate was mixed for 10 minutes on a plate shaker to lyse the cells. The plates were read on a Tecan M1000 using Luminescence protocol modified to read 0.1 s per well. The luminescence reading assesses the ATP content, which correlates directly with cell number such that the reading as a function of compound concentration was used to determine the IC50 value.
(In general: ATP-based viability assays read luminescence as a measure of living cells.)

As to `NC1CCC(NC(=O)c2n[nH]c3ccc(-c4cnc5[nH]c(-c6ccccc6)cc5c4)cc23)CC1` (centres unmarked) [Compound P-0019, N-(4-aminocyclohexyl)-5-(2-phenyl-1H-pyrrolo[2,3-b]pyridin-5-yl)-1H-indazole-3-carboxamide], the IC50 in test [1], in test [2] and in test [3] was 0.0001 to 10 µM each time.
Regarding `O=C(O)C1CCN(C(=O)c2cccc(-c3cnc4[nH]c(-c5ccccc5)cc4c3)n2)CC1` [Compound P-0024, 1-[6-(2-phenyl-1H-pyrrolo[2,3-b]pyridin-5-yl)pyridine-2-carbonyl]piperidine-4-carboxylic acid], the IC50 in test [1] fell in the range of 0.0001 to 10 µM; in test [2], 0.0001 to 10 µM; in test [3], 10 to 50 µM.
`CN[C@H]1CCN(C(=O)c2cccc(-c3cnc4[nH]c(-c5ccccc5)cc4c3)n2)C1` [Compound P-0051, [(3S)-3-(methylamino)pyrrolidin-1-yl]-[6-(2-phenyl-1H-pyrrolo[2,3-b]pyridin-5-yl)-2-pyridyl]methanone]: the IC50 in test [1], in test [2] and in test [3] was 0.0001 to 10 µM throughout.
With `Cn1cc(NC(=O)c2cccc(-c3cnc4[nH]c(-c5ccccc5)cc4c3)n2)cn1` [Compound P-0065, N-(1-methylpyrazol-4-yl)-6-(2-phenyl-1H-pyrrolo[2,3-b]pyridin-5-yl)pyridine-2-carboxamide], the values for the IC50 in test [1] and in test [3] were 0.0001 to 10 µM and 10 to 50 µM, respectively.
Consider `Cn1ccc(NC(=O)c2cccc(-c3cnc4[nH]c(-c5ccccc5)cc4c3)n2)n1` [Compound P-0066, N-(1-methylpyrazol-3-yl)-6-(2-phenyl-1H-pyrrolo[2,3-b]pyridin-5-yl)pyridine-2-carboxamide], for which the IC50 in test [1] was in the range of 0.0001 to 10 µM; in test [2] it was 0.0001 to 10 µM; in test [3], 50 to 100 µM.
For `O=C(c1ccc(-c2cnc3[nH]c(-c4ccccc4)cc3c2)s1)N1CCC(n2ccnc2)C1` (centres unmarked) [Compound P-0110, (3-imidazol-1-ylpyrrolidin-1-yl)-[5-(2-phenyl-1H-pyrrolo[2,3-b]pyridin-5-yl)-2-thienyl]methanone], in test [3], the IC50 is 10 to 50 µM.
For the molecule `COC(=O)C1(NC(=O)c2cccc(-c3cnc4[nH]c(-c5ccccc5)cc4c3)n2)CC1` [Compound P-0129, methyl 1-[[6-(2-phenyl-1H-pyrrolo[2,3-b]pyridin-5-yl)pyridine-2-carbonyl]amino]cyclopropanecarboxylate], the half-maximal inhibitory concentration (IC50) in test [1] and in test [4] was 0.0001 to 10 µM in each case.
As to `CC(C)(C#N)NC(=O)c1cccc(-c2cnc3[nH]c(-c4ccnc(F)c4)cc3c2)n1` [Compound P-0209, N-(1-cyano-1-methyl-ethyl)-6-[2-(2-fluoro-4-pyridyl)-1H-pyrrolo[2,3-b]pyridin-5-yl]pyridine-2-carboxamide], the IC50 in test [1] lay within 0.0001 to 10 µM; in test [2] it was 0.0001 to 10 µM; in test [3], 50 to 100 µM.
Regarding `Cc1cc(-c2cc3cc(-c4cccc(C(=O)NC(C)(C)C#N)n4)cnc3[nH]2)ccn1` [Compound P-0210, N-(1-cyano-1-methyl-ethyl)-6-[2-(2-methyl-4-pyridyl)-1H-pyrrolo[2,3-b]pyridin-5-yl]pyridine-2-carboxamide], the figures for the IC50 in test [1], in test [2] and in test [3] were 0.0001 to 10 µM, 0.0001 to 10 µM and 50 to 100 µM, respectively.

One may read the IC50 as the point on the concentration scale where inhibition reaches its midpoint.
